From US20200138854A1, “Method of Detecting and Quantifying Bile Acid from Saliva” (Ironwood Pharmaceuticals, Inc., priority 2017, published 2020) come the findings set out here.

Data set [1] is described as follows: Frozen (−20° C.) short-term stability in cholestyramine-treated human saliva. To be noted: for % Bias QC-LLOQ / Mean concentration QC-LLOQ / Concentration QC-LLOQ / % Bias QC-Mid / Mean concentration QC-Mid / Concentration QC-Mid / % Bias QC-High / Mean concentration QC-High / Concentration QC-High: cholestyramine-treated human saliva; for Concentration QC-LLOQ / Concentration QC-Mid / Concentration QC-High: single determinations; for Mean concentration after frozen (−20° C.) storage: n 4. The method, then:
Quality control samples for the evaluation of accuracy and precision and for run acceptance were prepared on the day of sample extraction. QC samples prepared in cholestyramine-treated saliva are to be prepared in small volumes for analysis. Stability for these QC samples would be limited to short-term storage (i.e., 2 days) whereas untreated human saliva would be evaluated for long-term storage.
For stability in cholestyramine-treated human saliva, samples were prepared by spiking cholestyramine-treated human saliva with each analyte at the QC-LLOQ, QC-Low, QC-Mid and QC-High levels. The samples were stored in a −20° C. freezer. After 1 day and 2 days of storage, each sample was extracted in replicates of four for analysis.

Data set [2] can be described thus: Long-term (1 month at −20° C. and −80° C.) stability in untreated human saliva. To be noted: for Long-term stability in untreated human saliva: at 80° C. (sic); for % Bias QC-High / Difference from Fresh (%) QC-High / Mean concentration QC-High / Concentration QC-High / Mean at Time Zero, Fresh QCs (Batch 34), QC-High: untreated human saliva; for Concentration QC-High: single determinations; for Concentration after long-term storage / Mean concentration after long-term storage: 1 Month; for Concentration after long-term storage / Mean concentration after long-term storage / % Bias / Difference from Fresh (%) / Fresh QCs (Batch 34) Mean at Time Zero: QC-High; for Concentration after long-term storage: individual values, run 35; for Mean concentration after long-term storage: n 3; for % Bias / Difference from Fresh (%): 1 month.

Where [3] appears, read: nominal 5.00 ng/mL, 1 Day frozen (−20° C.).
[4] abbreviates: nominal 5.00 ng/mL, 2 Days frozen (−20° C.).
Setting [5] is: nominal 80.0 ng/mL, 1 Day frozen (−20° C.).
[6] abbreviates: nominal 80.0 ng/mL, 2 Days frozen (−20° C.).
Where [7] appears, read: nominal 800 ng/mL, 1 Day frozen (−20° C.).
[8] abbreviates: nominal 800 ng/mL, 2 Days frozen (−20° C.).
Setting [9] is: nominal 800 ng/mL, 1 month −20° C. storage.
The mark [10] stands for this setting: nominal 800 ng/mL, 1 month −80° C. storage.
Where [11] appears, read: −20° C. Storage, nominal 80.0 ng/mL.
The mark [12] stands for this setting: −80° C. Storage, nominal 80.0 ng/mL.
[13] abbreviates: nominal 0.500 ng/mL, 1 Day frozen (−20° C.).
Setting [14] is: nominal 0.500 ng/mL, 2 Days frozen (−20° C.).
The mark [15] stands for this setting: nominal 8.00 ng/mL, 1 Day frozen (−20° C.).
[16] abbreviates: nominal 8.00 ng/mL, 2 Days frozen (−20° C.).
Where [17] appears, read: nominal 80.0 ng/mL, 1 month −20° C. storage.
Where [18] appears, read: nominal 80.0 ng/mL, 1 month −80° C. storage.

The structures appear in SMILES notation. Where “and” joins values, the source holds several entries; their conditions need not be identical. Equal values may be shown once.

With `C[C@H](CCC(=O)O)[C@H]1CC[C@H]2[C@@H]3[C@H](O)C[C@@H]4C[C@H](O)CC[C@]4(C)[C@H]3CC[C@]12C` [Chenodeoxycholic Acid, Chenodeoxycholic acid], in data set [1], the “Short-term stability in cholestyramine-treated human saliva” value (“Short-term stability” for short) is reported as “up to 2 days” and the “Stability in Treated Human Saliva” value stood at 2 days. Besides, in data set [1] (setting [3]), the “% Bias QC-LLOQ” value is reported as 0.4%; the “Mean concentration QC-LLOQ” value was 5.02 ng/mL; the “Concentration QC-LLOQ” value was 4.72 ng/mL and 5.20 ng/mL and 4.89 ng/mL and 5.28 ng/mL. Besides, in data set [1] (setting [4]), the “% Bias QC-LLOQ” value is 18.3%; the “Mean concentration QC-LLOQ” value amounted to 5.92 ng/mL; the “Concentration QC-LLOQ” value is 5.73 ng/mL and 6.15 ng/mL and 5.60 ng/mL and 6.18 ng/mL. In data set [1] (setting [5]), the “% Bias QC-Mid” value is on record as 2.5%; the “Mean concentration QC-Mid” value was 82.0 ng/mL; the “Concentration QC-Mid” value was 85.9 ng/mL and 84.8 ng/mL and 78.0 ng/mL and 79.2 ng/mL. Moreover, in data set [1] (setting [6]), the “% Bias QC-Mid” value came to 4.6%; the “Mean concentration QC-Mid” value is 83.7 ng/mL; the “Concentration QC-Mid” value was 80.0 ng/mL and 87.1 ng/mL and 88.9 ng/mL and 78.8 ng/mL. For the same molecule, in data set [1] (setting [7]), the “% Bias QC-High” value is recorded as −14.7%; the “Mean concentration QC-High” value worked out at 683 ng/mL; the “Concentration QC-High” value was 644 ng/mL and 699 ng/mL and 671 ng/mL and 717 ng/mL. In data set [1] (setting [8]), the “% Bias QC-High” value is reported as −9.3%; the “Mean concentration QC-High” value is 725 ng/mL; the “Concentration QC-High” value was 693 ng/mL and 777 ng/mL and 725 ng/mL and 706 ng/mL. For the same molecule, in data set [2], the “Long-term stability in untreated human saliva” value is reported as “up to 1 month”. The “Stability in Untreated Human Saliva” value in data set [2] (at −20° C.) amounted to 1 Month. Also, the “Stability in Untreated Human Saliva” value in data set [2] (at −80° C.) came out at 1 Month. In data set [2] (setting [9]), the “% Bias QC-High” value is listed as −15.1%; the “Difference from Fresh (%) QC-High” value is recorded as −13.5%; the “Mean concentration QC-High” value is reported as 679 ng/mL; the “Concentration QC-High” value is 693 ng/mL and 686 ng/mL and 659 ng/mL. In data set [2] (setting [10]), the “% Bias QC-High” value is −15.7%; the “Difference from Fresh (%) QC-High” value is on record as −14.1%; the “Mean concentration QC-High” value was 674 ng/mL; the “Concentration QC-High” value is 701 ng/mL and 692 ng/mL and 630 ng/mL. For the same molecule, the “Mean at Time Zero, Fresh QCs (Batch 34), QC-High” value (shortened to “Mean at Time Zero, Fresh QCs”) in data set [2] (nominal 800 ng/mL, reference for −20° C. storage) is on record as 785 ng/mL. Moreover, in data set [2] (nominal 800 ng/mL, reference for −80° C. storage), the “Mean at Time Zero, Fresh QCs” value is 785 ng/mL.

With `C[C@H](CCC(=O)O)[C@H]1CC[C@H]2[C@@H]3[C@H](O)C[C@@H]4C[C@H](O)CC[C@]4(C)[C@H]3C[C@H](O)[C@]12C` [Cholic Acid, Cholic acid], the “% Bias” value is −6.7% in data set [1] (Storage period 1 Day at −20° C., QC-High, nominal 80.0 ng/mL); −0.9% in data set [1] (Storage period 1 Day at −20° C., QC-LLOQ, nominal 0.500 ng/mL); −5.9% in data set [1] (Storage period 1 Day at −20° C., QC-Mid, nominal 8.00 ng/mL); −6.2% in data set [1] (Storage period 2 Days at −20° C., QC-High, nominal 80.0 ng/mL); 12.1% in data set [1] (Storage period 2 Days at −20° C., QC-LLOQ, nominal 0.500 ng/mL); −3.6% in data set [1] (Storage period 2 Days at −20° C., QC-Mid, nominal 8.00 ng/mL). The results for the “% Bias” value in data set [2] (setting [11]) and in data set [2] (setting [12]) were −6.1% and −2.2%, respectively. Also, the “Mean concentration after frozen (−20° C.) storage” value in data set [1] (Storage period 1 Day, QC-High, nominal 80.0 ng/mL) stood at 74.7 ng/mL; in data set [1] (Storage period 1 Day, QC-LLOQ, nominal 0.500 ng/mL) it was 0.496 ng/mL; in data set [1] (Storage period 1 Day, QC-Mid, nominal 8.00 ng/mL), 7.53 ng/mL; in data set [1] (Storage period 2 Days, QC-High, nominal 80.0 ng/mL), 75.1 ng/mL; in data set [1] (Storage period 2 Days, QC-LLOQ, nominal 0.500 ng/mL), 0.561 ng/mL; in data set [1] (Storage period 2 Days, QC-Mid, nominal 8.00 ng/mL), 7.72 ng/mL. Also, the “Concentration after long-term storage” value in data set [2] (setting [11]) is 72.6 ng/mL and 76.7 ng/mL and 76.0 ng/mL; in data set [2] (setting [12]) it was 79.6 ng/mL and 77.9 ng/mL and 77.2 ng/mL. Also, the figures for the “Mean concentration after long-term storage” value in data set [2] (setting [11]) and in data set [2] (setting [12]) were 75.1 ng/mL and 78.2 ng/mL, respectively. Moreover, the “Difference from Fresh (%)” value was −6.1% in data set [2] (setting [11]) and −2.2% in data set [2] (setting [12]). Besides, the “Fresh QCs (Batch 34) Mean at Time Zero” value in data set [2] (reference for −20° C. Storage, nominal 80.0 ng/mL) amounted to 80.0 ng/mL; in data set [2] (reference for −80° C. Storage, nominal 80.0 ng/mL) it was 80.0 ng/mL.

As for `C[C@H](CCC(=O)NCC(=O)O)[C@H]1CC[C@H]2[C@@H]3[C@H](O)C[C@@H]4C[C@H](O)CC[C@]4(C)[C@H]3C[C@H](O)[C@]12C` [Glycocholic Acid, Glycocholic acid], in data set [1], the “Short-term stability” value is “up to 2 days” and the “Stability in Treated Human Saliva” value is 2 days. Besides, in data set [1] (setting [13]), the “% Bias QC-LLOQ” value is given as −1.8%; the “Mean concentration QC-LLOQ” value was 0.491 ng/mL; the “Concentration QC-LLOQ” value is 0.485 ng/mL and 0.474 ng/mL and 0.464 ng/mL and 0.541 ng/mL. In addition, in data set [1] (setting [14]), the “% Bias QC-LLOQ” value is on record as 8.5%; the “Mean concentration QC-LLOQ” value was found to be 0.542 ng/mL; the “Concentration QC-LLOQ” value was 0.464 ng/mL and 0.541 ng/mL and 0.485 ng/mL and 0.474 ng/mL. Also, in data set [1] (setting [15]), the “% Bias QC-Mid” value is −10.3%; the “Mean concentration QC-Mid” value is 7.18 ng/mL; the “Concentration QC-Mid” value is 7.20 ng/mL and 7.21 ng/mL and 7.28 ng/mL and 7.01 ng/mL. Also, in data set [1] (setting [16]), the “% Bias QC-Mid” value is on record as −8.3%; the “Mean concentration QC-Mid” value is 7.34 ng/mL; the “Concentration QC-Mid” value is 7.28 ng/mL and 7.01 ng/mL and 7.20 ng/mL and 7.21 ng/mL. In data set [1] (setting [5]), the “% Bias QC-High” value is −7.5%; the “Mean concentration QC-High” value came out at 74.0 ng/mL; the “Concentration QC-High” value was 73.2 ng/mL and 74.9 ng/mL and 73.6 ng/mL and 74.2 ng/mL. Besides, in data set [1] (setting [6]), the “% Bias QC-High” value is on record as −6.7%; the “Mean concentration QC-High” value is on record as 74.7 ng/mL; the “Concentration QC-High” value was 73.6 ng/mL and 74.2 ng/mL and 73.2 ng/mL and 74.9 ng/mL. Further, the “Long-term stability in untreated human saliva” value in data set [2] is on record as “up to 1 month”. Further, the “Stability in Untreated Human Saliva” value in data set [2] (at −20° C.) is given as 1 Month. Further, in data set [2] (at −80° C.), the “Stability in Untreated Human Saliva” value stood at 1 Month. Also, in data set [2] (setting [17]), the “% Bias QC-High” value was −5.9%; the “Difference from Fresh (%) QC-High” value is listed as −6.3%; the “Mean concentration QC-High” value was 75.3 ng/mL; the “Concentration QC-High” value is 72.8 ng/mL and 75.6 ng/mL and 77.5 ng/mL. In addition, in data set [2] (setting [18]), the “% Bias QC-High” value was −4.8%; the “Difference from Fresh (%) QC-High” value is recorded as −5.3%; the “Mean concentration QC-High” value is on record as 76.1 ng/mL; the “Concentration QC-High” value is 78.4 ng/mL and 75.9 ng/mL and 74.1 ng/mL. Further, in data set [2] (nominal 80.0 ng/mL, reference for −20° C. storage), the “Mean at Time Zero, Fresh QCs” value is 80.4 ng/mL. Moreover, the “Mean at Time Zero, Fresh QCs” value in data set [2] (nominal 80.0 ng/mL, reference for −80° C. storage) stood at 80.4 ng/mL.

For the molecule `C[C@H](CCC(=O)O)[C@H]1CC[C@H]2[C@@H]3CC[C@@H]4C[C@H](O)CC[C@]4(C)[C@H]3CC[C@]12C` [Lithocholic Acid, Lithocholic acid], in data set [1], the “Short-term stability” value was “up to 2 days” and the “Stability in Treated Human Saliva” value worked out at 2 days.
